The values that follow come from US20230167127A1, “COMPOUNDS AND THEIR USE IN THE TREATMENT OF BACTERIAL INFECTION” (Hoffmann-La Roche Inc., priority 2020, published 2023).

For this assay, the system named is Escherichia coli ATCC 25922. In words: 50% growth inhibitory concentration (IC50) determination, Iso-Sensitest broth dilution. In kind it is cell-based. Particulars: strain Escherichia coli ATCC 25922, 10-point broth dilution, optical density at 600 nm over 16 h, read-out: Escherichia coli growth inhibition IC50. In outline: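 10-point twofold Iso-Sensitest broth dilution (e.g. 50 to 0.097 μM final) with DMSO stocks, incubated at 35±2° C. Growth followed by OD 600 nm every 20 min over 16 h; IC50 derived from growth inhibition during logarithmic phase.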

Setting [1] is: Escherichia coli, ATCC25922, 16 h.

Where a name gives a salt, the structure may show the parent alone. Read-outs that look alike come from different tables or passages of the source. Bounds are passed on as bounds.

What is called IC50 is the concentration that gives 50% inhibition.

As to `Cc1ncc(F)c2c1CC(NCC(O)CC1CN(c3cnc4c(n3)NC(=O)CO4)C(=O)O1)C2` (single isomer, unassigned; isomer a) [Example 313, 6-[2-Oxo-5-[3-[(4-fluoro-1-methyl-6,7-dihydro-5H-cyclopenta[c]pyridin-6-yl)amino]-2-hydroxypropyl]-1,3-oxazolidin-3-yl]-4H-pyrazino[2,3-b][1,4]oxazin-3-one; formic acid, Isomer A], the IC50 under setting [1] is 1900 nM. On the same count and under the same terms, the value for `NC1c2cccc(Cl)c2CC1CNC1CC2(C1)CN(c1ccc3c(n1)NC(=O)CO3)C(=O)O2` (racemic) [Example 210, 2,4-cis-6-[6-oxo-2-[[rac-1,2-trans-1-amino-4-chloro-2,3-dihydro-1H-inden-2-yl]methylamino]-5-oxa-7-azaspiro[3.4]octan-7-yl]-4H-pyrido[3,2-b][1,4]oxazin-3-one] was 295 nM; that for `N#Cc1cc(OCC2(N)CC2)cc2c1CC(CNCCC1CN(c3ccc4c(n3)NC(=O)CO4)C(=O)O1)C2` (stereo not drawn) [Example 185, 6-[(1-aminocyclopropyl)methoxy]-2-[[2-[2-oxo-3-(3-oxo-4H-pyrido[3,2-b][1,4]oxazin-6-yl)-1,3-oxazolidin-5-yl]ethylamino]methyl]-2,3-dihydro-1H-indene-4-carbonitrile] was less than 97.7 nM; that for `CONC(=O)COc1cc(F)c2c(c1)CC(CNCCC1CN(c3cnc4c(n3)NC(=O)CO4)C(=O)O1)C2` (stereo not drawn) [Example 311, 2-[[7-Fluoro-2-[[2-[2-oxo-3-(3-oxo-4H-pyrazino[2,3-b][1,4]oxazin-6-yl)-1,3-oxazolidin-5-yl]ethylamino]methyl]-2,3-dihydro-1H-inden-5-yl]oxy]-N-methoxyacetamide; formic acid] was 382 nM. On the same count and under the same terms, next, `CN1CCCC1COc1ccc2c(c1C#N)CC(CNCCC1CN(c3ccc4c(n3)NC(=O)CO4)C(=O)O1)C2` (stereo not drawn) [Example 52, 5-[(1-methylpyrrolidin-2-yl)methoxy]-2-[[2-[2-oxo-3-(3-oxo-4H-pyrido[3,2-b][1,4]oxazin-6-yl)-1,3-oxazolidin-5-yl]ethylamino]methyl]-2,3-dihydro-1H-indene-4-carbonitrile; formic acid]: less than 97.7 nM. On the same count and under the same terms, next, `NC1(COc2cc(F)c3c(c2)CC(CN2CCC4(CC2)CN(c2cnc5c(n2)NC(=O)CO5)C(=O)O4)C3)CC1` (stereo not drawn) [Example 257, 6-[8-[[6-[(1-Aminocyclopropyl)methoxy]-4-fluoro-2,3-dihydro-1H-inden-2-yl]methyl]-2-oxo-1-oxa-3,8-diazaspiro[4.5]decan-3-yl]-4H-pyrazino[2,3-b][1,4]oxazin-3-one; formic acid]: less than 97.7 nM; `Cc1ncc(F)c2c1CC(NCC(O)CC1CN(c3cnc4c(n3)NC(=O)CO4)C(=O)O1)C2` (single isomer, unassigned; isomer c) [Example 315, 6-[2-Oxo-5-[3-[(4-fluoro-1-methyl-6,7-dihydro-5H-cyclopenta[c]pyridin-6-yl)amino]-2-hydroxypropyl]-1,3-oxazolidin-3-yl]-4H-pyrazino[2,3-b][1,4]oxazin-3-one; formic acid, Isomer C]: 668 nM. `Cc1nc(C)c2c(c1F)CC(CNCCC1CN(c3cnc4c(n3)NC(=O)CO4)C(=O)O1)C2` (stereo not drawn) [Example 352, 6-[5-[2-[(4-fluoro-1,3-dimethyl-6,7-dihydro-5H-cyclopenta[c]pyridin-6-yl)methylamino]ethyl]-2-oxo-1,3-oxazolidin-3-yl]-4H-pyrazino[2,3-b][1,4]oxazin-3-one; formic acid]: the IC50 under setting [1] was less than 97.7 nM. Still for that read-out and setting: the value for `CNC(=O)COc1cc(C)c2c(c1C)CC(CNCCC1CN(c3ccc4c(n3)NC(=O)CO4)C(=O)O1)C2` (stereo not drawn) [Example 112, 2 2-[[4,7-dimethyl-2-[[2-[2-oxo-3-(3-oxo-4H-pyrido[3,2-b][1,4]oxazin-6-yl)-1,3-oxazolidin-5-yl]ethylamino]methyl]-2,3-dihydro-1H-inden-5-yl]oxy]-N-methylacetamide] was 303 nM; that for `Cc1ncc(F)c2c1CC(NCCCc1cn(-c3cnc4c(n3)NC(=O)CO4)c(=O)o1)C2` (stereo not drawn) [Example 302, 6-[5-[3-[(4-Fluoro-1-methyl-6,7-dihydro-5H-cyclopenta[c]pyridin-6-yl)amino]propyl]-2-oxo-1,3-oxazol-3-yl]-4H-pyrazino[2,3-b][1,4]oxazin-3-one; formic acid] was less than 97.7 nM. On to `N#Cc1cccc2c1CC(CNCCC1(N)CC(=O)N(c3ccc4c(n3)NC(=O)CO4)C1)C2` (stereo not drawn) [Example 138, 2-[[2-[3-amino-5-oxo-1-(3-oxo-4H-pyrido[3,2-b][1,4]oxazin-6-yl)pyrrolidin-3-yl]ethylamino]methyl]-2,3-dihydro-1H-indene-4-carbonitrile], for which the IC50 under setting [1] turned out to be 359 nM. With `Cc1ncc(Cl)c2c1CC(CNCCC1CN(c3ccc4c(n3)NC(=O)CO4)C(=O)O1)C2` (stereo not drawn) [Example 55, 6-[5-[2-[(4-chloro-1-methyl-6,7-dihydro-5H-cyclopenta[c]pyridin-6-yl)methylamino]ethyl]-2-oxo-1,3-oxazolidin-3-yl]-4H-pyrido[3,2-b][1,4]oxazin-3-one; formic acid], the IC50 under setting [1] is less than 97.7 nM.

In the case of `NC1c2cccc(Cl)c2CC1CNCCCC1CN(c2ccc3c(n2)NC(=O)CO3)C(=O)O1` (racemic) [Example 227, 6-[2-Oxo-5-[3-[[rac-1,2-trans-1-amino-4-chloro-2,3-dihydro-1H-inden-2-yl]methylamino]propyl]-1,3-oxazolidin-3-yl]-4H-pyrido[3,2-b][1,4]oxazin-3-one], the IC50 under setting [1] was 132 nM. `Cc1ncc(F)c2c1CC(CN1CCC3(CN(c4ccc5c(n4)NC(=O)CO5)C(=O)O3)C(CN)C1)C2` (racemic) [Example 250, 6-[rac-5,6-trans-6-(Aminomethyl)-8-[(4-fluoro-1-methyl-6,7-dihydro-5H-cyclopenta[c]pyridin-6-yl)methyl]-2-oxo-1-oxa-3,8-diazaspiro[4.5]decan-3-yl]-4H-pyrido[3,2-b][1,4]oxazin-3-one]: the IC50 worked out at 289 nM.

As to `Cc1nc(OCc2cc[nH]n2)c(F)c2c1CC(CNCCC1CN(c3cnc4c(n3)NC(=O)CO4)C(=O)O1)C2` (stereo not drawn) [Example 415], the IC50 under setting [1] came out at 221 nM. Take `Cc1ncc(C#N)c2c1CC(NCCCc1cn(-c3cnc4c(n3)NC(=O)CO4)c(=O)o1)C2` (single isomer, unassigned; enantiomer b) [Example 322, 1-Methyl-6-[3-[2-oxo-3-(3-oxo-4H-pyrazino[2,3-b][1,4]oxazin-6-yl)-1,3-oxazol-5-yl]propylamino]-6,7-dihydro-5H-cyclopenta[c]pyridine-4-carbonitrile, Enantiomer B]: the IC50 was less than 97.7 nM.

Regarding `CC(C)(N)COc1cc(F)c2c(c1)CC(CNCC[C@@H]1CN(c3cnc4c(n3)NC(=O)CO4)C(=O)O1)C2` (stereo partly drawn) [Example 342, 6-[(5R)-5-[2-[[6-(2-amino-2-methylpropoxy)-4-fluoro-2,3-dihydro-1H-inden-2-yl]methylamino]ethyl]-2-oxo-1,3-oxazolidin-3-yl]-4H-pyrazino[2,3-b][1,4]oxazin-3-one; formic acid], under setting [1], the IC50 was found to be 180 nM. Same read-out and setting: the value for `N#Cc1c(OCC2(N)CC2)ccc2c1CC(CNCCC1CN(c3ccc4c(n3)NC(=O)CO4)C(=O)O1)C2` (stereo not drawn) [Example 124, 5-[(1-aminocyclopropyl)methoxy]-2-[[2-[2-oxo-3-(3-oxo-4H-pyrido[3,2-b][1,4]oxazin-6-yl)-1,3-oxazolidin-5-yl]ethylamino]methyl]-2,3-dihydro-1H-indene-4-carbonitrile hydrochloride] was less than 97.7 nM; that for `Cc1ncc(Cl)c2c1CC(CNCCC1CN(c3ccc4c(n3)NC(=O)CO4)C(=O)O1)C2N` (racemic) [Example 262, 6-[5-[2-[(rac-5,6-trans-5-Amino-4-chloro-1-methyl-6,7-dihydro-5H-cyclopenta[c]pyridin-6-yl)methylamino]ethyl]-2-oxo-1,3-oxazolidin-3-yl]-4H-pyrido[3,2-b][1,4]oxazin-3-one; formic acid] was less than 97.7 nM. On the same count and under the same terms, next, `CNC(=O)COc1cc(C)c2c(c1C)CC(CNCCC1CN(c3ccc4c(n3)NC(=O)CS4)C(=O)O1)C2` (stereo not drawn) [Example 114, 2-[[4,7-dimethyl-2-[[2-[2-oxo-3-(3-oxo-4H-pyrido[3,2-b][1,4]thiazin-6-yl)-1,3-oxazolidin-5-yl]ethylamino]methyl]-2,3-dihydro-1H-inden-5-yl]oxy]-N-methylacetamide]: 217 nM; `Cc1ncc(F)c2c1CC(NCCCc1cn(-c3cnc4c(n3)NC(=O)CO4)c(=O)o1)C2` (single isomer, unassigned; enantiomer a) [Example 367, 6-[5-[3-[(4-Fluoro-1-methyl-6,7-dihydro-5H-cyclopenta[c]pyridin-6-yl)amino]propyl]-2-oxo-1,3-oxazol-3-yl]-4H-pyrazino[2,3-b][1,4]oxazin-3-one, Enantiomer A]: less than 97.7 nM.

Turning to `NCCOc1ncc2c(c1Cl)CC(CNCCC1CN(c3ccc4c(n3)NC(=O)CO4)C(=O)O1)C2` (stereo not drawn) [Example 174, 6-[5-[2-[[3-(2-aminoethoxy)-4-chloro-6,7-dihydro-5H-cyclopenta[c]pyridin-6-yl]methylamino]ethyl]-2-oxo-1,3-oxazolidin-3-yl]-4H-pyrido[3,2-b][1,4]oxazin-3-one], the IC50 under setting [1] is less than 97.7 nM.

In the case of `Cc1c(OCC2CNC(=O)CN2)nc(C#N)c2c1CC(CN1CCC3(CC1)CN(c1ccc4c(n1)NC(=O)CO4)C(=O)O3)C2` (stereo not drawn) [Example 220, 4-methyl-6-((2-oxo-3-(3-oxo-3,4-dihydro-2H-pyrido[3,2-b][1,4]oxazin-6-yl)-1-oxa-3,8-diazaspiro[4.5]decan-8-yl)methyl)-3-((5-oxopiperazin-2-yl)methoxy)-6,7-dihydro-5H-cyclopenta[c]pyridine-1-carbonitrile], under setting [1], the IC50 came out at 319 nM. Same read-out and setting: next, `Cc1ncc(F)c2c1C[C@@H](CNCC[C@H]1CN(c3cnc4c(n3)NC(=O)CO4)C(=O)O1)C2` [Example 428, 6-[(5S)-5-[2-[[(6R)-4-fluoro-1-methyl-6,7-dihydro-5H-cyclopenta[c]pyridin-6-yl]methylamino]ethyl]-2-oxo-1,3-oxazolidin-3-yl]-4H-pyrazino[2,3-b][1,4]oxazin-3-one]: less than 97.7 nM.
